Experimental data from ChEMBL document CHEMBL5614433, “The "Doorstop Pocket" In Thioredoxin Reductases─An Unexpected Druggable Regulator of the Catalytic Machinery” (J Med Chem, 2024).

Legend:
[1] = molecular target: T1, Thioredoxin glutathione reductase (Schistosoma mansoni) (UniProt Q962Y6); test: Inhibition of Schistosoma mansoni TGR at 66.7 uM incubated for 6 hrs in presence of NADPH
T1 sequence (whole entry): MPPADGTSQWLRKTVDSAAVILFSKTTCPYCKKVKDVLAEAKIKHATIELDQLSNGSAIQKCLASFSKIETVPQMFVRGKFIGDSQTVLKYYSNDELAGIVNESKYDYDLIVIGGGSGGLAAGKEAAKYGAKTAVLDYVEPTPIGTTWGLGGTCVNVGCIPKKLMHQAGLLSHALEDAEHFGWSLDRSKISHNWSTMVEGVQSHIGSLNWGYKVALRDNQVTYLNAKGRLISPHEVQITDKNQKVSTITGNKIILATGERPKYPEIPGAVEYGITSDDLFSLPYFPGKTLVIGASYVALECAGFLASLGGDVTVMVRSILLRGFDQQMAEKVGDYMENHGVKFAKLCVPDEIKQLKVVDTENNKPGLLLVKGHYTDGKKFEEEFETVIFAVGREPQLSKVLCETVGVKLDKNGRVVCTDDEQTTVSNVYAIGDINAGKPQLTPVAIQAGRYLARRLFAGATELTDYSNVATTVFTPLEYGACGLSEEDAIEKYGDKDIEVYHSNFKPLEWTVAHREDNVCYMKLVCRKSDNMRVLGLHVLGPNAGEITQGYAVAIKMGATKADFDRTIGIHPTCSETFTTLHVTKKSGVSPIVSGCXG

[2] = Inhibition of human TrxR1 incubated for 6 hrs in presence of NADPH
[3] = molecular target: T2, Thioredoxin glutathione reductase (Schistosoma mansoni, UniProt Q962Y6); test: Inhibition of Schistosoma mansoni TGR incubated for 15 mins in presence of NADPH
T2 sequence (Q962Y6 whole entry): T1 sequence (whole entry)

Schistosoma mansoni = test: Schistosomicidal-activity against Schistosoma mansoni adult worm measured after 24 hrs; assay type: functional; conditions: read-out: LD50 (the source's name)
[4] = Cytotoxicity against african green monkey Vero cells measured after 24 hrs; assay type: toxicity, cell-based; conditions: chlorocebus sabaeus, read-out: LD50
[5] = Selectivity ratio of IC50 for human TrxR1 to IC50 for Schistosoma mansoni TGR
[6] = Inhibition of human TrxR1 incubated for 15 mins in presence of NADPH
[7] = Inhibition of human TrxR1

SMILES | inhibition [1] [%] | IC50 [2] [µM] | also measured
C#CCN(Cc1nc(-c2ccccc2)oc1C)C1C[C@@H]2C[C@H]([C@H]1C)C2(C)C (stereo partly drawn) |  |  | IC50 [3]: 2.5 µM; LC50 (Schistosoma mansoni): 15.7 µM; CC50 at 24 h [4]: > 100 µM; Ratio IC50 [5]: 25; IC50 [6]: > 66.7 µM
Cc1oc(-c2ccc3ccccc3c2)nc1CNC1CCCCCC1 | 28.7 | > 19 | 
O=C(Nc1ccc(Cl)cc1)c1ccc([N+](=O)[O-])o1 |  |  | IC50 [7]: 3.8 µM
Cc1oc(-c2ccc3c(c2)OCO3)nc1CN[C@@H]1C[C@@H]2C[C@H]([C@H]1C)C2(C)C | 28.7 | > 19 | 
C[C@@H]1[C@H]2C[C@@H](C[C@H]1NCc1nc3ccccc3n1C1CCCCCC1)C2(C)C |  |  | IC50 [6]: 4.9 µM
C[C@@H]1[C@H]2C[C@@H](C[C@H]1NCc1cn([C@@H]3OC[C@@H](O)[C@H](O)[C@H]3O)c3ccccc13)C2(C)C |  |  | IC50 [3]: 57.5 µM

More lines, main results first:

inhibition [1] [%] | IC50 [2] [µM] | SMILES | also measured
28.7 | > 19 | Cc1oc(C2CCCCC2)nc1CN[C@@H]1C[C@@H]2C[C@H]([C@H]1C)C2(C)C | 
28.7 | > 19 | CCc1ccccc1-c1nc(CN[C@@H]2C[C@@H]3C[C@H]([C@H]2C)C3(C)C)c(C)o1 | 
28.7 | > 19 | Cc1oc(-c2ccccc2)nc1CN[C@@H]1C[C@@H]2C[C@H]([C@H]1C)C2(C)C | 
